What was measured:
[1] = tested on: patients having tinnitus; test: 24-week placebo controlled, randomized, double-blind comparative trial, TRSw score; assay type: in vivo, human; set-up: key to Change in TRSw score: LS mean change in TRSw score from week 0 to week 24; <0 = better; conditions: for Change in TRSw score, Neramexane-placebo / Change in TRSw score: 24 weeks; for Change in TRSw score: 50 mg/day
Excerpt: A therapeutic effect can be evaluated by physician inquiry using a questionnaire form such as TRSw (Tinnitus Rating Scale One-Week Version) (Acta Otolaryngol., 2013, 133(5), 491-498).
The efficacy of neramexane mesylate on patients with tinnitus associated with age-related hearing loss, tinnitus associated with auditory disorder in the range of the human voice at an auditory threshold value exceeding 25 dB, tinnitus that includes two or more different tinnitus sounds or tinnitus that includes a tinnitus sound that is not high-frequency alone, was evaluated in a 24-week, placebo controlled, randomized, double-blind comparative trial.
The film coated tablets containing 12.5 mg neramexane mesylate or placebo tablets were administered for 24 weeks to patients having tinnitus. The dosage was started from 12.5 mg/day, gradually increasing the dose to 50 mg/day over 4 weeks, and maintaining the same dose thereafter.
The therapeutic effect of neramexane mesylate for the patients was evaluated using the TRSw score. Statistical analysis was performed using a mixed-effect model repeated measure (MMRM) taking into consideration the covariance structure of error for the patient, with the change in TRSw score from before administration of neramexane mesylate tablets or placebo tablets (0 weeks) to each evaluation time point as the response variable, and with the drug-administered group, evaluation time point, interaction between drug-administered group and evaluation time point, 0-week TRSw score, gender and body weight as […]. The numerical values in the table represent least mean squares for the change in TRSw score at 24 weeks after administration. A change in score of less than 0 indicates a higher therapeutic effect.

[2] = biological target: α9/α10 nicotinic acetylcholine receptors (Rattus norvegicus, UniProt P43144+Q9JLB5); conditions: Plazas, et al., Eur J Pharmacol., 2007; cited from earlier work
[3] = biological target: T1, 5-HT3 receptors (Homo sapiens, UniProt P46098); conditions: cited from earlier work
T1 sequence (P46098 24-478): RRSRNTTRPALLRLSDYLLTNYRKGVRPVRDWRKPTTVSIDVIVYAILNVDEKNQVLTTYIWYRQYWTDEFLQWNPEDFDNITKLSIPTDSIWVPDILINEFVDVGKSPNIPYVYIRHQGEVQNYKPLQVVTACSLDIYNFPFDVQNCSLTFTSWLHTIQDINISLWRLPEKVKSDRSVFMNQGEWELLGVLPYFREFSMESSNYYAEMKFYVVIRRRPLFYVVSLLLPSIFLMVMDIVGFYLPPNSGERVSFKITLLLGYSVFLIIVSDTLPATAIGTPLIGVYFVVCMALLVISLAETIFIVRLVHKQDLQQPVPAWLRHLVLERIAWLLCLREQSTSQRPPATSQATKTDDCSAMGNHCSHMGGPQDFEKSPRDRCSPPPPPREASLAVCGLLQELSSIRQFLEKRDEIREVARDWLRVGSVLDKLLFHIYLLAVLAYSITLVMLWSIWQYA

[4] = Tinnitus associated with age-related hearing loss at hearing threshold of 25 dB or more in both ears in 4000 Hz and 8000 Hz
[5] = Tinnitus associated with age-related hearing loss at hearing threshold of 25 dB or more in both ears in 8000 Hz
[6] = Tinnitus associated with age-related hearing loss, exhibiting auditory disorder (>25 dB) in the range of the human voice
[7] = Tinnitus associated with auditory disorder (>25 dB) in the range of the human voice
[8] = Tinnitus including tinnitus sound not of high-frequency alone
[9] = Tinnitus including two or more different tinnitus sounds, associated with age-related hearing loss, exhibiting auditory disorder (>25 dB) in the range of the human voice
[10] = Tinnitus including two or more different tinnitus sounds, associated with age-related hearing loss
[11] = Tinnitus including two or more different tinnitus sounds

α9/α10 nicotinic acetylcholine receptors, sequence (P43144 26-479): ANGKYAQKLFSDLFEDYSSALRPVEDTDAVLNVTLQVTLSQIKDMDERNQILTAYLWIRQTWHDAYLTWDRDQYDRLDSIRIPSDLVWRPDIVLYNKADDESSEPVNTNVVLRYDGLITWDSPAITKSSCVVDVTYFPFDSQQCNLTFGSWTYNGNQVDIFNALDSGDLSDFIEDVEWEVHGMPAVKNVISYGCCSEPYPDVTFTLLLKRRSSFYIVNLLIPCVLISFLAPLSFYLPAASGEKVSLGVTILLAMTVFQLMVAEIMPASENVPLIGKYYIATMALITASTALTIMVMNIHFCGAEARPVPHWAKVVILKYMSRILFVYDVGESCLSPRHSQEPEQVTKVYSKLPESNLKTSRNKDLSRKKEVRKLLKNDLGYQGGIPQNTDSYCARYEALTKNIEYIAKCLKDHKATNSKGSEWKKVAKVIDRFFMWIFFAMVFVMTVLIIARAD
α9/α10 nicotinic acetylcholine receptors, sequence (Q9JLB5 25-447): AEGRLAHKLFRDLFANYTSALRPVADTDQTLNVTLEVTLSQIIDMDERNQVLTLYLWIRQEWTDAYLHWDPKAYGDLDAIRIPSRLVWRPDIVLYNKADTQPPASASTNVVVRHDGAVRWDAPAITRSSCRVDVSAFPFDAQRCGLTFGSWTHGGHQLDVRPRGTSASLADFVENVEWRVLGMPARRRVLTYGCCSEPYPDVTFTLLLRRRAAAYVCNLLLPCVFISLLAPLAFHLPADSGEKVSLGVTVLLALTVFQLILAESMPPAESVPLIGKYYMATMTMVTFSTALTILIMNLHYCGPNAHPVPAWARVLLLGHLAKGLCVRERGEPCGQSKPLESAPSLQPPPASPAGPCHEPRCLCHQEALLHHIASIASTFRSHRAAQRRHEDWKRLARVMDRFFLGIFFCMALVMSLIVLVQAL

## CC1(C)CC(C)(C)CC(C)(N)C1 [Neramexane, 1-amino-1,3,3,5,5-pentamethylcyclohexane]
[1]; [4]
  Change in TRSw score, Neramexane-placebo: −2.0
  Change in TRSw score: −2.5
[1]; [5]
  Change in TRSw score, Neramexane-placebo: −1.5
  Change in TRSw score: −2.2
[1]; [6]
  Change in TRSw score, Neramexane-placebo: −2.0
  Change in TRSw score: −3.6
[1]; Tinnitus associated with age-related hearing loss
  Change in TRSw score, Neramexane-placebo: −0.5
[1]; Tinnitus associated with age-related hearing loss, least mean squares
  Change in TRSw score: −2.5
[1]; [7]
  Change in TRSw score, Neramexane-placebo: −0.6
  Change in TRSw score: −1.7
[1]; [8]
  Change in TRSw score, Neramexane-placebo: −0.7
  Change in TRSw score: −2.0
[1]; [9]
  Change in TRSw score, Neramexane-placebo: −4.7
  Change in TRSw score: −5.0
[1]; [10]
  Change in TRSw score, Neramexane-placebo: −2.7
  Change in TRSw score: −4.1
[1]; [11]
  Change in TRSw score, Neramexane-placebo: −0.5
  Change in TRSw score: −2.2
[1]; combined groups: age-related hearing loss with auditory disorder >25 dB, two or more sounds with age-related hearing loss, all three criteria
  therapeutic effect compared to placebo: unexpectedly excellent therapeutic effect
[1]; single-criterion groups: age-related hearing loss, auditory disorder >25 dB in range of human voice, two or more tinnitus sounds, sound not high-frequency alone
  therapeutic effect compared to placebo: superior therapeutic effect
[2]
  inhibiting activity on α9/α10 nicotinic acetylcholine receptors: exhibits inhibiting activity
[3]
  inhibiting activity on 5-HT3 receptors: exhibits inhibiting activity

Reference: patent US20170049718A1, “DRUG FOR TREATMENT OF TINNITUS PATIENTS” (KYORIN PHARMACEUTICAL CO., LTD., priority 2014, published 2017)
